Experimental findings from patent US20030199514A1, “Methods for improving efficacy of treatment with growth hormone secretagogues” (priority 2002, published 2003) are described below.

This experiment relates to urinary nitrogen excretion. Kind of experiment: Phase I double-blind, placebo-controlled, multiple dose evaluation of test compound in calorically restricted, obese men and women. The following applies: obese subjects on caloric-restricted diet, 3 mg po tid, 6 mg po tid or 10 mg po qam for seven days. It is filed as in vivo, human. Here is the method: Phase I Double-Blind, Placebo-Controlled, Multiple Dose Evaluation of Test Compound in Calorically Restricted, Obese Men and Women
A total of 48 obese subjects, with a negative exercise tolerance test and without significant other medical problems, were recruited for this study and placed on a caloric-restricted diet. Subjects were randomized to either placebo, 3 mg po tid, 6 mg po tid or 10 mg po qam of the test compound, 2-amino-N-[2-(3a-(R)-benzyl-2-methyl-3-oxo-2,3,3a,4,6,7-hexahydro-pyrazolo[4,3-c]pyridin-5-yl)-1-(R)-benzyloxymethyl-2-oxo-ethyl]-isobutyramide, L-tartrate, for a total of seven days.
The primary efficacy outcome variable of this study was urinary nitrogen excretion. Breakdown of protein (protein catabolism) may be measured by urinary nitrogen excretion. The covariates determined in this study included: 1.) gender; 2.) serum total and free testosterone; and 3.) serum total and free estradiol.

`CN1N=C2CCN(C(=O)[C@@H](COCc3ccccc3)NC(=O)C(C)(C)N)C[C@@]2(Cc2ccccc2)C1=O.O=C(O)C(O)C(O)C(=O)O` [test compound, 2-amino-N-[2-(3a-(R)-benzyl-2-methyl-3-oxo-2,3,3a,4,6,7-hexahydro-pyrazolo[4,3-c]pyridin-5-yl)-1-(R)-benzyloxymethyl-2-oxo-ethyl]-isobutyramide, L-tartrate]: the “effect on urinary nitrogen (excretion)” value runs as follows: (men) “manifest in men”; (women) “modest effects of treatment in women”.
